From patent US20220304916A1, “MODIFIED BLACK SOLDIER FLY LARVAE OIL WITH MODIFIED LAURIC ACID FOR TREATMENT AGAINST BIOFILM FORMATION AND MICROORGANISM GROWTH” (BIO-BEE SDE ELIYAHU LTD, priority 2019, published 2022)

Columns and labels:
Assay type in all cases: cell-based
[1] = system: Staphylococcus aureus (SA); assay: Planktonic growth, OD 595 nm after 24 h
Protocol: (§1) MBSFL oil (converted, 225, BioBee Sde Eliyahu Ltd, lot 0095-0098.181210-181227) was compared to BSFL oil (before conversion, 215, BioBee Sde Eliyahu Ltd, lot 0030.111217), lauric acid 98% (Sigma-Aldrich, denoted LA) and chlorhexidine acetate (Steinberg, denoted CHX), were analyzed as antimicrobial and anti-biofilm-formation agents in vitro, with respect to Pseudomonas aeruginosa (Gram negative, denoted PA01), Staphylococcus aureus (ATCC, American Type Culture Collection) (Gram positive, denoted SA), Streptococcus mutans (ATCC) (Gram positive, denoted SM), Lactobacillus (ATCC) (Gram positive, denoted L), Candida albicans (ATCC) (yeast, denoted CA) and Candida glabrata (ATCC) (yeast, denoted CG).
(§2) Microbial stocks of the Biofilm Research Laboratory were grown from frozen stock: SM at overnight 37° C. in BHI (brain heart infusion) broth medium in an atmosphere of 5% CO2; L at 37° C. in MRS (de Man, Rogosa and Sharpe) broth medium in an atmosphere of 5% CO2; PAO1 and SA at 37° C. in TSB (Trypticase soy broth) medium; CA and CG at 37° C. in RPMI (Roswell Park Memorial Institute) medium.
(§3) BSFL oil and MBSFL oil were prepared in DDW by heating at 100° C. LA was prepared at 50% Ethanol/50% DDW (doubly distillated water) and heated constantly to prevent solidifying in the tube. Maximum concentration of tested agents was the same (2.7% of lauric acid content). CHX was prepared in DDW
(§4) To examine the effects of MBSFL oil on microorganism's growth (planktonic conditions), serial 1:2 dilutions of each tested agent in appropriate medium (BSFL, MBSFL and LA from 2.7 to 0.04%; CHX from 20 μg/ml to 0.3 μg/ml) were prepared in a polystyrene flat-bottomed 96-well microplate. Wells with no compounds and those with bacteria served as positive controls. Wells with no bacteria and with compound served as blanks. An equal volume (100 μl) of the each tested bacterial and fungal suspension at optical density (OD)595=0.02 and 0.05, respectively, was added to each well. After a 24 h incubation, growth was monitored by recording the OD at 595 nm using a Genius plate reader Spectrophotometer (Tecan). The assay was performed in triplicates.

Candida albicans (CA) [2] = assay: Planktonic growth, OD 595 nm after 24 h
Protocol: as §1, §2, §3, §4

Lactobacillus (L) [3] = assay: Planktonic growth, OD 595 nm after 24 h
Protocol: as §1, §2, §3, §4

[4] = system: Pseudomonas aeruginosa (PAO1); assay: Planktonic growth, OD 595 nm after 24 h
Protocol: as §1, §2, §3, §4

[5] = system: Streptococcus mutans (SM); assay: Planktonic growth, OD 595 nm after 24 h
Protocol: as §1, §2, §3, §4

Candida glabrata (CG) [6] = assay: Planktonic growth, OD 595 nm after 24 h
Protocol: as §1, §2, §3, §4

Candida albicans (CA) [7] = assay: Viability on agar plates (MFC)
Protocol: as §1, §2, §3
(§5) To examine the effects of MBSFL oil on microorganism's viability, equal amounts (5 μl) of bacterial suspension exposed to each tested concentration of agent was plated on agar plates. Plates were incubated overnight at 37° C. Colony growth was recorded as non-affected by agent's viable bacteria. Minimal Bactericidal Concentration (MBC) was recorded as no colony growth. Minimal Fungicidal Concentration (MFC) was recorded as no fungal growth.

Candida glabrata (CG) [8] = assay: Viability on agar plates (MFC)
Protocol: as §1, §2, §3, §5

[9] = system: Staphylococcus aureus (SA); assay: Viability on agar plates (MBC)
Protocol: as §1, §2, §3, §5

Lactobacillus (L) [10] = assay: Viability on agar plates (MBC)
Protocol: as §1, §2, §3, §5

[11] = system: Pseudomonas aeruginosa (PAO1); assay: Viability on agar plates (MBC)
Protocol: as §1, §2, §3, §5

[12] = system: Streptococcus mutans (SM); assay: Viability on agar plates (MBC)
Protocol: as §1, §2, §3, §5

[13] = system: Staphylococcus aureus (SA); assay: Biofilm formation, crystal violet staining; conditions: 24 h
Protocol: as §1, §2, §3
(§6) To examine the effects of MBSFL oil on biofilm formation by the microorganisms, assays for all of the tested agents were performed as described above except of growth medium used which was MRS/BHI supplemented with 1% sucrose and TSB/RPMI supplemented with 1% glucose. After incubation for 24 h, spent media and free-floating bacteria/fungi were removed by gentle aspiration and the wells were washed twice with phosphate-buffered saline (PBS, pH 7.4). The biofilm was then quantified by crystal violet staining. Briefly, 0.02% crystal violet was added into wells for 45 min, which were then washed twice with DDW to remove unbound dye. After adding 200 μl of 30% acetic acid into each well, the plate was shaken for 10 min to release the dye and the biofilm was quantified by measuring the absorbance at 595 nm using a Genius plate reader Spectrophotometer (Tecan). Assay was performed in triplicates.

Candida albicans (CA) [14] = assay: Biofilm formation, crystal violet staining; conditions: 24 h
Protocol: as §1, §2, §3, §6

[15] = system: Pseudomonas aeruginosa (PAO1); assay: Biofilm formation, crystal violet staining
Protocol: as §1, §2, §3, §6

[16] = system: Streptococcus mutans (SM); assay: Biofilm formation, crystal violet staining; conditions: 24 h
Protocol: as §1, §2, §3, §6

Candida glabrata (CG) [17] = assay: Biofilm formation, crystal violet staining
Protocol: as §1, §2, §3, §6

## CC(=O)O.CC(=O)O.NC(=N\CCCCCC/N=C(N)/N=C(\N)Nc1ccc(Cl)cc1)/N=C(\N)Nc1ccc(Cl)cc1 [CHX, chlorhexidine acetate]
[1]; planktonic, 24 h
  dose inhibiting growth of SA: 2.5 µg/mL
Candida albicans (CA) [2]
  dose inhibiting growth of CA: 5 µg/mL
Lactobacillus (L) [3]
  MIC: 2.5 µg/mL
[4]
  dose of total inhibition of PAO1 growth: 10 µg/mL
[5]
  dose inhibiting growth of SM: 0.625 µg/mL
Candida glabrata (CG) [6]
  dose inhibiting growth of CG: 2.5 µg/mL
Candida albicans (CA) [7]
  MFC: 5 mg/L
Candida glabrata (CG) [8]
  MFC: 2.5 µg/mL
[9]
  MBC: 10 µg/mL
Lactobacillus (L) [10]
  MBC: 2.5 µg/mL
[11]
  MBC: 20 mg/L
[12]
  MBC: 0.625 µg/mL
[13]
  dose inhibiting biofilm formation: 2.5 µg/mL
Candida albicans (CA) [14]
  dose inhibiting biofilm formation: 5 µg/mL
[15]; PAO1 biofilm, 24 h
  dose of total inhibition of biofilm formation: 10 µg/mL
[16]
  dose inhibiting biofilm formation: 0.625 µg/mL
Candida glabrata (CG) [17]; 24 h
  dose inhibiting biofilm formation: 2.5 µg/mL

## CCCCCCCCCCCC(=O)O [LA, lauric acid]
[1]; lowest tested dose of 0.04%
  reduction of SA growth: 90%
Candida albicans (CA) [2]
  MIC: 1.35%
Lactobacillus (L) [3]
  MIC: 0.33%
[5]
  MIC: 0.33%
Candida glabrata (CG) [6]
  MIC: 2.7%
Candida albicans (CA) [7]
  Minimal Fungicidal Concentration (MFC): 2.7%
Candida glabrata (CG) [8]
  MFC: 2.7%
[9]
  MBC: 0.67%
Lactobacillus (L) [10]
  MBC: 0.67%
[11]
  Minimal Bactericidal Concentration (MBC): exerted MBC/MFC for all tested microbes, except PAO1
[12]
  MBC: 0.33%
[13]
  dose at which biofilm formation was totally or almost totally inhibited: 0.67%
Candida albicans (CA) [14]
  dose at which biofilm formation was almost totally inhibited: 0.67%
[15]; all concentrations tested
  effect on biofilm formation (in words): dose-dependently increased biomass
[16]
  dose of total inhibition of biofilm formation: 0.16%
Candida glabrata (CG) [17]
  effect on biofilm formation (in words): effective against biofilm formation of CG but with less impact
